The record followed here is patent publication US9132164B2, “Pharmaceutical compositions comprising angiotensin-(1-9), derivatives thereof, or a vector expressing ACE2, useful for treating cardiovascular, pulmonary, cerebral, and/or renal remodeling” (PONTIFICIA UNIVERSIDAD CATOLICA DE CHILE, priority 2008, dated 2015).

Test [1] deals with Neonatal Sprague-Dawly rat cardiomyocytes. Kind of test: Hypertrophy of cultured cardiomyocytes induced by norepinephrine or IGF-1. The settings on record: co-addition of 10 or 100 μM. The test is classed as cell-based. As for the experimental part:
Neonatal Sprague-Dawly rat cardiomyocytes were isolated as described by (Foncea et al, J. Biol. Chem. 272:19115-24, 1997). Every study is in accordance with the guide for the care and use of laboratory animals Published by “U.S. National Institutes of Health” (NIH publication No 85-23, revised 1985) and was approved by our Institutional Ethics Committee. Cell cultures were >95% pure. Cardiomyocytes were plated at 70% final density in gelatin coated plates and kept at 37° C. in a 5% CO2/95% air moisturized atmosphere for 24 h in DMEM/M199 (4:1) with 10% bovine fetal serum and 5% calf serum. […]
Cells were grown over slides and were incubated in a buffer conferring stability to the cytoskeleton (10 mM MES pH 6.0, 150 mM NaCl, 5 mM EDTA, 3% sucrose, 5 mM MgCl2) for 5 min. Then, cells were fixed and permeabilized using methanol for 10 min. Non specific binding sites were blocked for 1 h with phosphate-buffered saline (PBS) supplemented with 3% bovine serum albumin. […] Cellular staining was evaluated in a confocal microscope (Carl Zeiss Axiovert 135, LSM Microsystems). Cardiomyocyte size was determined in cells fixed with 4% paraformaldehyde for 10 min and permeabilized with methanol for 10 min. […] The size of at least 100 cells from randomly selected fields was determined using Image J (NIH) software. […]

Test [2] deals with rats with myocardial infarction (left coronary artery ligation). Briefly: Effects of angiotensin-(1-9) administration on hemodynamic parameters and left ventricle weight in infarcted rats. Format: in vivo, Sprague Dawley rats. The conditions noted are these: infarcted rats (MI), osmotic mini-pump 14 days, average ± SEM. As for the experimental part: (§1) For studies with angiotensin-(1-9) 28 rats were randomly distributed into two groups and underwent a sham surgery (n=8) or infarction following left coronary artery ligation (n=20). The infarcted rats were randomized to receive the either the carrier, angiotensin-(1-9) (463 ng/kg of body weight for 14 days) or angiotensin-(1-9) plus A779 (463 ng of angiotensin-(1-9)/kg of body weight/min and 100 ng of A779/kg/min for 14 days) by means of osmotic mini-pumps (ALZET) implanted into the jugular under sedation with ketamine-HCl/xilazine (35/7 mg/kg intraperitoneal, respectively).
Systolic blood pressure (SBP) was determined by using the “tail-cuff” method by investigators who were blind to the treatment group. Left ventricle function was determined by transthoracic bidimensional echocardiography using a Sonos 5000 equipped with a 5 to 12 MHz sectorial electronic ultraband S12 Philips transducer. The following echocardiographic parameters were determined: left ventricular end-systolic diameter (LVESD), left ventricular end diastolic diameter (LVEDD), left ventricular fractional shortening (LVFS), left ventricular anterior wall thickness (LVAWT), and left ventricular posterior wall thickness (LLVWT).
(§2) The extent of left ventricular hypertrophy was calculated by the relationship among left ventricular weight (LVW), body weight (BW), mRNA relative levels of the auricular natriuretic factor (ANF), left ventricular protein content (LVP), and protein levels of β-myosinheavy chain (β-MHC) as described in (Ocaranza et al, Hypertension 48:572-8, 2006).

In test [3] the test system is heart cardiomyocytes of infarcted rats. Briefly: Cardiomyocyte area and perimeter, cardiac tissue morphometry of infarcted rats. The test is classed as in vivo, Sprague Dawley rats. The conditions noted are these: two weeks via osmotic mini-pumps, p<0.01. As for the experimental part:
as §1
Heart mid-ventricle transverse slices (10 μm) were embedded in paraffin, stained with hematoxylin and eosin, and were examined by light microcopy (×20). The size of cardiomyocytes was determined as described by Nakamura et al (Circulation 98:794-9, 1998). Briefly, cell images visualized on a video recorded attached to the microscope were projected in a monitor and they were plotted. The area and perimeter were determined using Image J. software. […] At least 70 cells per animal were measured.
In animal models as described in example 1, heart was removed, histological cuts were made and a morphologic and morphometric analysis was performed on cardiac tissue according to the procedure described in example 3. […] In panel B), quantification is illustrated. **p<0.01 vs sham; ^##p<0.01 vs MI.

A short description of test [4]: Plasma angiotensin levels in infarcted rats treated with angiotensin-(1-9) with or without A779. The test is classed as in vivo, Sprague Dawley rats. The conditions noted are these: with vs without A779, p<0.01. As for the experimental part:
as §1
Plasma angiotensin and bradykinin levels were determined as described by (Ocaranza et al, Hypertension 48:572-8, 2006; Ocaranza et al, Life Sci. 78:1535-42, 2005; Campbell et al, J. Mol. Cell. Cardiol. 27:1545-60, 1995). Briefly, rats were anesthetized with a combination of ketamin (125 mg/kg) and xilazin (12.5 mg/kg) administered via intraperitoneal injection. […] Plasmas were stored at −80° C. until their extraction using C18 Sep-Pak cartridges, and peptides were acetylated. Acetylated angiotensin II, angiotensin I, angiotensin-(1-7), angiotensin-(1-9), bradykinin-(1-7) and bradykinin-(1-9) were separated by high performance liquid chromatography (HPLC) and were detected by radioimmunoassay.

In test [5] the test system is left ventricle of infarcted rats. Kind of test: ANF mRNA (RT-PCR) and β-MHC protein (Western blot) in left ventricle of infarcted rats. The conditions noted are these: two weeks via osmotic mini-pumps, p<0.01. Format: in vivo, Sprague Dawley rats. As for the experimental part:
as §1, §2
In animal models as described in example 1, the heart was removed and RNA was purified according to the procedure described in example 3. Later, the amount of ANF mRNA was determined by reverse transcription followed by polymerization chain reaction (RT-PCR) (see example 3). […] Panel B) illustrates RT-PCRs quantification. **p<0.01 vs sham; ^##p<0.01 vs MI. […]
A general note: A western blot detects proteins with antibodies after separation by electrophoresis.

“Also recorded” adds a separate entry of the source. No end group written: not given here.

Regarding DRVYIHPFH [angiotensin-(1-9)], the “increments in cardiomyocyte areas induced by IGF-1” value in test [1] (IGF-1 10 nM) was “significantly prevented”. Moreover, the “increments in cardiomyocyte areas induced by NE” value in test [1] (NE 10 μM) is reported as “significantly prevented”. In test [2], the CPVI is reported as 8.0 ± 0.3 mg, the FC entry was “without observing changes”, the LVW result is listed as “significant reduction” and the LVW/BW is listed as 310 ± 16 MV/100 g BW. Moreover, the SBP entry in test [2] was “without observing changes; also recorded: does not alter”. In test [2] (listed as Ang-(1-9)), this sequence returned an FC of 259 ± 14 beats/min, an LVW of 810 ± 7 mg and an SBP of 112 ± 2 mm Hg. In test [3], the “cardiomyocyte cellular area increment compared with infarcted rats” value is “prevented cellular area increment” and the “cardiomyocyte perimeter, decrease with regard to infarcted rats” value stood at 31%. Besides, in test [4], the “plasma angiotensin-(1-9) levels” value was 6.8±0.8 fmols/g. Also, the “ANF mRNA levels, reduction compared with infarcted rats” value in test [5] (RT-PCR) turned out to be 81%. Moreover, the “β-MHC protein levels in left ventricle, decrease compared with infarcted rats” value in test [5] (Western blot) turned out to be 48%.
